Each structure is given as a SMILES string.

Assay [1] concerns Eph4. Nature of the assay: Cell viability assays (MTS, PI staining), normal mammary epithelial cells. In kind it is cell-based, mouse. As to the method:
FIG. 15. Inhibition of cell viability by BKAc-Puro. The cell lines were grown and analyzed as in FIG. 12.
FIG. 17. Selective cytotoxicity by BKAc-Puro on breast cancer cells. Normal mammary gland epithelial cells (Eph4) and breast cancer cells (MCF-7 and MDA-MB-231) were grown and analyzed as in FIG. 10. BF, bright field. PI, fluorescent PI channel. BKAc-Puro can selectively cause cell death in breast cancer cells (MCF-7 and MDA-MB-231) while leaving normal Eph4 cells unharmed.
Cell number was determined by cell counting using improved Neubauer hemacytometer. Cell viability was calculated as the number of viable cells divided by the total number of cells using Trypan Blue Stain (Invitrogen) to distinguish non-viable cells. Data were obtained from duplicated samples with quadruplicate measurements. MTS based cell viability assay was performed using CellTiter 96 Aqueous Cell Proliferation Assay (Promega) according to the manufacturer's instruction. […] After additional 2-3 h incubation, the absorbance of the formazan at 490 nm was measured by the microplate reader. […] Determination of non-viable cells using PI staining was performed by adding 1 μg/ml of PI solution (Sigma) to the cell culture, prior to the examination under fluorescence microscopy (Axiovert 3, Carl Zeiss) through a×32 objective equipped with a digital imaging processor (Infinity 3, Lumenera).

The test system of assay [2] is HCT116 xenograft tumor. The assay can be described thus: HCT116 mouse xenograft model. In kind it is in vivo. The text has this:
FIG. 20. In vivo anticancer efficacy of BKAc-Puro. […] HCT116 cells were implanted subcutaneously into female nude mice. When the developed tumors reached 200 mm^3, animals were intraperitoneally injected by the indicated dose of the compound or vehicle control (DMSO). Tumor volume was estimated by the equation vol=(a×b^2)/2, where vol, a, and b represent volume, the length of the major axis, and the length of the minor axis, respectively. Arrows indicate the time points of treatment. (b) Body weight change during the treatment in a. Value is expressed in percent change compared to the day of the first treatment.
FIG. 21. HCT116 cells were implanted subcutaneously into female nude mice. When palpable tumors reached 50-150 mm^3, animals were randomized and treated by the indicated dose of the compound or vehicle control (DMSO) via intraperitoneal injection. Tumor incidence is presented as number of mice developed tumor (volume >300 mm^3) after 2 weeks of daily treatment/number of mice treated. Tumor volume was estimated by the equation vol=(a×b^2)/2, where vol, a, and b represent volume, the length of the major axis, and the length of the minor axis, respectively.
(§1) FIG. 29. In vivo anticancer efficacy of Boc-KAc-Puro. (a) Tumor growth in HCT116 xenograft model. Animals were treated with acidified saline control or Boc-KAc-Puro (50 or 150 mg/kg). Values are mean±s.d. (n=5 mice per group). *** P<0.001 compared to the control group. P=0.000716 (50 mg/kg), P=0.000349 (150 mg/kg) at 10 d. (b) Body weight change during the treatment in a and was monitored as a sign of general animal health. Values are mean±s.d. (c) Tumor growth in HT29 xenograft model. Animals were treated with acidified saline control or Boc-KAc-Puro (150 mg/kg). Values are mean±s.d. (n=5 mice per group). *** P<0.001 compared to the control group. P=0.000514 (150 mg/kg) at 10 d. (d) Body weight change during the treatment in c was monitored as a sign of general animal health. Values are mean±s.d. (e) Levels of Puro-incorporated proteins were monitored by immunoblotting. Animals bearing HT29 xenograft tumor were given daily intraperitoneal administration of the prodrug at 150 mg/kg/dose for 3 d, followed by preparation of tissue lysates. The lower panel (anti-α-Tubulin) served as a loading control.
To assess the in vivo efficacy of the compounds, mouse xenograft model using HCT116 colon cancer cells is used as an established evaluation method for the anticancer drugs against cancer (Cao, Z. A. et al. 2006). The growth inhibitory effects of the compounds on size-matched xenografts are examined by subcutaneous implantation of HCT116 cells into nude mice. HCT116 cells are injected subcutaneously and allowed to develop palpable tumors (50-150 mm^3) before initiation of drug administration. Mice (5-10 animals per group) are treated with the vehicle (DMSO or PBS) or the prodrugs by intraperitoneal administration. Dose ranges are determined by the dose escalation studies of the prodrugs. […] Relative tumor volume is calculated by dividing tumor volume by that on day 0 (the day of treatment initiation). […] Statistical significance of the data is evaluated by performing one-way ANOVA with post hoc Turkey's test to compare means (GraphPad Prism software). The efficacy of the compounds is further evaluated in a similar manner by using other cancer cell lines. […]

Assay [3] deals with Puro incorporation in tumors, muscle and kidney. The assay can be described thus: Immunoblotting of Puro-labeled proteins in tissue lysates of HT29 xenograft mice. In kind it is in vivo, mouse. The note with it: 150 mg/kg/dose daily intraperitoneal for 3 d. On the procedure:
as §1, with “Animals bearing HT29 xenograft tumor were given daily intraperitoneal administration of the prodrug at 150 mg/kg/dose for 3 d, followed by preparation of tissue lysates. The lower panel (anti-α-Tubulin) served as a loading control.” left out
Cultured cells or tissue samples were sonicated in RIPA lysis buffer (1% NP-40, 0.1% SDS, 50 mM Tris-HCl pH 7.4, 150 mM NaCl, 0.5% sodium deoxycholate, 1 mM EDTA) supplemented with PMSF and protease inhibitor cocktail (Roche) on ice followed by clarification. […] Proteins of interest were detected with anti-mouse secondary antibody by chemiluminescence (ECL Kit, GE Healthcare Life Sciences). […]
For orientation: In western blotting, separated proteins are transferred to a membrane and probed.

`COc1ccc(CC(NC(=O)C(CCCCNC(C)=O)NC(=O)OC(C)(C)C)C(=O)NC2C(O)[C@H](n3cnc4c(N(C)C)ncnc43)O[C@@H]2CO)cc1` (stereo partly drawn) [BKAc-Puro, N-[3′-(α-Amino-p-methoxyhydrocinnamamido)-3′-deoxy-N,N-dimethyldenosinyl)-N-α-(t-butoxycarbonyl]-N-ε-acetyl-L-lysineamide]: the Cell death entry in assay [1] is reported as “unharmed”. For the same molecule, the “Tumors developed at 200 mg/kg” value in assay [2] (200 mg/kg, intraperitoneal, 2 weeks daily) is on record as “no tumors greater than 300 mm^2 were observed”. Further, the Tumor growth result is reported as “dose-dependent inhibition of tumor growth” in assay [2] (50 and 150 mg/kg/dose daily intraperitoneally for 10 d); “inhibition of tumor growth” in assay [2] (intraperitoneal, treatment from tumors of 200 mm^3, DMSO vehicle control). Also, the “Tumor mass in comparison to acidified saline control” value in assay [2] (50 and 150 mg/kg/dose, 10 d, P<0.001) is listed as “significantly smaller tumor mass”. Further, the Tumor incidence result in assay [2] (intraperitoneal, 2 weeks of daily treatment) is listed as “inhibition of tumor incidence”. Also, the “Intensity of Puro incorporation, tumors versus normal muscle and kidney” value in assay [3] is “substantially greater in tumors”.

The record behind these values is US20160184459A1, “CANCER CELL SPECIFIC IMAGING PROBES AND METHODS OF USE” (THE RESEARCH FOUNDATION FOR THE STATE UNIVERSITY OF NEW YORK, priority 2013, published 2016).
